For one data set, the system named is S. aureus ATCC 29213. Briefly: Synergy with oxacillin and vancomycin, partial checkerboard broth microdilution. The data set is classed as cell-based, Staphylococcus aureus. The following applies: for FIC (Oxa) / FIC (Van): MIC antibiotic in combination/MIC antibiotic alone; for MIC Oxa in Combination: oxacillin with the complex at ½ MIC (NH4PF6 250 µg/mL); for MIC Van in Combination: vancomycin with the complex at ½ MIC (NH4PF6 250 µg/mL); for MIC: Staphylococcus aureus. (In general: In broth dilution the organism is exposed to a series of concentrations in liquid medium.)

The test system of data set [1] is S. epidermidis ATCC 12228. The description is as above. The data set is classed as cell-based, Staphylococcus epidermidis. The following applies: for FIC (Oxa) / FIC (Van): MIC antibiotic in combination/MIC antibiotic alone; for MIC Oxa in Combination: oxacillin with the complex at ½ MIC (NH4PF6 250 µg/mL); for MIC Van in Combination: vancomycin with the complex at ½ MIC (NH4PF6 250 µg/mL); for MIC: Staphylococcus epidermidis.

The subject of data set [2] is Candida albicans ATCC 10231. Kind of data set: MIC and MBC/MFC by broth microdilution. The data set is classed as cell-based. The following applies: C. albicans ATCC 10231. On the procedure:
(§1) Reference strains of bacteria and fungi: Staphylococcus aureus ATCC 29213, Staphylococcus epidermidis ATCC 12228, Enterococcus faecalis ATCC 29212, Pseudomonas aeruginosa ATCC 25619, Proteus vulgaris ATCC 8427, and Candida albicans ATCC 10231 (Manassas, VA, USA) were used to screen the antimicrobial activity of the arene-ruthenium(II) complexes 3a-3d, NH4PF6 and selected antibiotics. The microorganisms were grown for 24 h (bacteria) or 48 h (fungi) in 35-37 °C in tryptic-soy agar (TSA; BTL Sp. z o.o., Łódź, Poland) or Sabouraud's dextrose agar (SDA; BTL Sp. z o.o., Łódź, Poland) according to nutritional requirements. Microbial suspensions at a density of about 5 × 10^5 CFU/mL were prepared in Mueller-Hinton broth (MHB; BTL Sp. z o.o., Łódź, Poland) or RPMI-1640 medium (Sigma, St. Louis, MO, USA) for bacteria and fungi, respectively. […] Louis, MO, USA). Stock solutions of the lyophilized compounds were freshly prepared in 100% DMSO (POCh, Gliwice, Poland) for the complexes, or in water for injection (Sigma, St. Louis, MO, USA) in the case of antibiotics. […] MIC and MBC/MFC were defined as the lowest concentrations of the compounds inhibiting bacterial/fungal growth or able to kill added microbial inoculum, respectively, and were evaluated as described by […] et al.. Experiments were carried out in duplicate.

In data set [3] the test system is Enterococcus faecalis ATCC 29212. Briefly: MIC and MBC/MFC by broth microdilution. The following applies: E. faecalis ATCC 29212. The data set is classed as cell-based. On the procedure: as §1
Data set [4] has as its system Proteus vulgaris ATCC 8427. Briefly: MIC and MBC/MFC by broth microdilution. The data set is classed as cell-based. The following applies: P. vulgaris ATCC 8427. On the procedure:
as §1

Data set [5] has as its system Pseudomonas aeruginosa ATCC 25619. Briefly: MIC and MBC/MFC by broth microdilution. The data set is classed as cell-based. The following applies: P. aeruginosa ATCC 25619. On the procedure: as §1
For data set [6], the system named is Staphylococcus aureus ATCC 29213. Briefly: MIC and MBC/MFC by broth microdilution. The following applies: S. aureus ATCC 29213. The data set is classed as cell-based. On the procedure: as §1
For data set [7], the system named is Staphylococcus epidermidis ATCC 12228. Kind of data set: MIC and MBC/MFC by broth microdilution. The following applies: S. epidermidis ATCC 12228. The data set is classed as cell-based. On the procedure: as §1
For data set [8], the system named is Staphylococcus aureus ATCC 29213. Kind of data set: Fluorescence microscopy, Hoechst 33258 / propidium iodide viability. The following applies: S. aureus ATCC 29213; MIC concentration, 24 h. The data set is classed as cell-based. On the procedure:
(§2) Staphylococcus aureus ATCC 29213 and Staphylococcus epidermidis ATCC 12228 strains were treated with tested compounds 2a–2d and 3a–3d at a concentration 1 × MIC for 24h, while untreated cells were used as a growth control. After incubation, the cells were harvested and a suspension of 1 × 10^5 cells/mL in PBS was prepared. Following this, 1 µl of the fluorescent dyes Hoechst 33258 and propidium iodide (15 µg/mL each) (Sigma, St. Louis, MO, USA) were added. The obtained mixture was incubated in the dark at room temperature for 15–20 min. After incubation, the cell suspensions, placed on glass slides, were analyzed under an Olympus IX 70 fluorescence microscope (Shinjuku, Tokyo, Japan), using a 360–370 nm UV filter. Photos were taken at 10 × 20 magnification.

Data set [9] deals with Staphylococcus epidermidis ATCC 12228. The data set is described as above. The following applies: S. epidermidis ATCC 12228; MIC concentration, 24 h. The data set is classed as cell-based. On the procedure:
as §2

Data set [10] has as its system human foreskin fibroblast HFF-1 (ATCC-SCRC-1041). Kind of data set: Cytotoxicity, MTT reduction assay. The data set is classed as cell-based. On the procedure:
The cytotoxicity of arene-ruthenium(II) complexes 3a–3d was determined using the MTT (3-(4,5-dimethylthiazol-2-yl)-2,5-diphenyltetrazolium bromide; Sigma, St. Louis, MO, USA) reduction assay and a human foreskin fibroblast HFF-1 culture (ATCC-SCRC-1041) (LGC Standards Sp. z o.o., Poland) at a final concentration range of 3.9–500 µM. The HFF-1 cells were cultured in Dulbecco’s Modified Eagle’s Medium (DMEM; Sigma, St. Louis, MO, USA) with 15% fetal bovine serum (FBS; BioWest, Nuaillé, France) and penicillin/streptomycin (100 × stock solution; BioWest, Nuaillé, France), 1 × 10^6 cell/mL (100 µL/well) in 96-well tissue culture plates (Nunc, Roskilde, Denmark) for 24 h at 37 °C/5% CO2. The cells were then exposed to arene-ruthenium(II) complexes for 24 h at 37 °C. The control (untreated) cells were exposed to culture medium alone or culture medium containing 2% DMSO to exclude the effect of the solvent used to prepare the stock solutions of the tested complexes. Next, fresh culture medium (100 µL/well) and MTT (1.5 mg/mL, 50 µL/well) were added, and cells were incubated for two hours under the above conditions. MTT was […] blue formazan crystals produced by the metabolically active cells. Finally, the MTT solution was removed and replaced with 100 µL/well of 20% sodium dodecyl sulfate (SDS; Sigma, St. Louis, MO, USA) for 24 h (room temperature) to dissolve the blue formazan. Based on the absorbance (λ = 550 nm) of tested and control cells (100% viability), the percentage of cell viability after exposure was calculated. For each sample, the experiment was performed twice.
(In general: Formazan colour is commonly taken as a measure of viable cells.)

≈ marks a conversion by molar mass, not a printed value. Like-named read-outs stand apart in the source and are kept apart here. Where only a bound is given, the exact number is not on record here.

With `Cc1ccc(C(C)C)cc1.Cc1ccc(C(C)C)cc1.[Cl][Ru][Cl].[Cl][Ru][Cl]` [Dimer, dichloro(p-cymene)ruthenium(II) dimer], in the data set with S. aureus ATCC 29213 (S. aureus ATCC 29213), the “Correlation with Oxa and Van (synergy), in words” value (“Correlation with Oxa and Van” below) is given as “did not show any synergistic effect”; the “FIC (Oxa)” value was found to be 1; the “FIC (Van)” value came out at 1; the “MIC Oxa in Combination” value was 0.250 µg/mL. The “MIC Van in Combination” value in the data set with S. aureus ATCC 29213 (S. aureus ATCC 29213) stood at 0.50 µg/mL. For the same molecule, in data set [1] (S. epidermidis ATCC 12228), the “Correlation with Oxa and Van” value is listed as “did not show any synergistic effect”; the “FIC (Oxa)” value is reported as 1; the “FIC (Van)” value was 2; the “MIC Oxa in Combination” value is given as 0.25 µg/mL. Also, the “MIC Van in Combination” value in [1] (S. epidermidis ATCC 12228) was 1 µg/mL.
In turn, `OC(Cn1cncn1)(Cn1cncn1)c1ccc(F)cc1F` [Flu, fluconazole, reference compound] showed an MBC/MFC in [2] greater than 16 µg/mL. For the same molecule, the MIC (as a rule, the lowest concentration found to suppress growth) in [2] was greater than 16 µg/mL; in [2] (Candida albicans, ATCC10231, read-out: MIC), greater than 16 µg/mL.
In the case of `CNC(C)C1CCC(N)C(OC2C(N)CC(N)C(OC3OCC(C)(O)C(NC)C3O)C2O)O1` (centres unmarked) [Gen, gentamicin, reference compound], the MBC/MFC in data set [3] is less than 2 µg/mL; in data set [4] it was 1 µg/mL (≈ 2.09 µM); in data set [5] it was 16 µg/mL (≈ 33.5 µM). In addition, the MIC in data set [3] was less than 2 µg/mL; in [3] (Enterococcus faecalis, ATCC29212, read-out: MIC), less than 2 µg/mL; in data set [4] (Proteus vulgaris, ATCC8427, read-out: MIC), 1 µg/mL (≈ 2.09 µM); in data set [5] (Pseudomonas aeruginosa, ATCC25619, read-out: MIC) it was 8 µg/mL (≈ 16.8 µM).
With `F[P-](F)(F)(F)(F)F.[NH4+]` [NH4PF6, Ammonium hexafluorophosphate], the MBC/MFC in [2], in [3], in [4], in data set [5], in data set [6] and in [7] was greater than 1000 µg/mL in each case. The MIC in data set [2], in data set [3], in data set [4], in [5], in data set [6] and in data set [7] was greater than 1000 µg/mL in each case. Moreover, the “Correlation with Oxa and Van” value (in the data set with S. aureus ATCC 29213 (S. aureus ATCC 29213); in data set [1] (S. epidermidis ATCC 12228)) was “did not show any synergistic effect” throughout. The “FIC (Oxa)” value (in the data set on S. aureus ATCC 29213 (S. aureus ATCC 29213); in data set [1] (S. epidermidis ATCC 12228)) was 1 each time. The “FIC (Van)” value stood at 1 with S. aureus ATCC 29213 (S. aureus ATCC 29213) and 2 in data set [1] (S. epidermidis ATCC 12228). The “MIC Oxa in Combination” value with S. aureus ATCC 29213 (S. aureus ATCC 29213) is 0.250 µg/mL; in [1] (S. epidermidis ATCC 12228), 0.25 µg/mL. The results for the “MIC Van in Combination” value (in the data set with S. aureus ATCC 29213 (S. aureus ATCC 29213); in [1] (S. epidermidis ATCC 12228)) were 0.50 µg/mL and 1 µg/mL, respectively.
For `Cc1onc(-c2ccccc2)c1C(=O)N[C@@H]1C(=O)N2[C@@H]1SC(C)(C)[C@@H]2C(=O)O` [Oxa, oxacillin, reference compound], the MBC/MFC in [6] and in [7] was 0.5 µg/mL (≈ 1.25 µM) in each case. Further, the MIC in data set [6] (Staphylococcus aureus, ATCC29213, read-out: MIC) came to 0.25 µg/mL (≈ 0.623 µM); in data set [7] (Staphylococcus epidermidis, ATCC12228, read-out: MIC), 0.25 µg/mL (≈ 0.623 µM); in the data set with S. aureus ATCC 29213 (ATCC29213, S. aureus ATCC 29213, oxacillin without complex, read-out: MIC Oxa Alone) it was 0.25 µg/mL; in data set [1] (ATCC12228, S. epidermidis ATCC 12228, oxacillin without complex, read-out: MIC Oxa Alone), 0.25 µg/mL.
In the case of `CN[C@H](CC(C)C)C(=O)N[C@H]1C(=O)N[C@@H](CC(N)=O)C(=O)N[C@H]2C(=O)N[C@H]3C(=O)N[C@H](C(=O)N[C@H](C(=O)O)c4cc(O)cc(O)c4-c4cc3ccc4O)[C@H](O)c3ccc(c(Cl)c3)Oc3cc2cc(c3O[C@@H]2O[C@H](CO)[C@@H](O)[C@H](O)[C@H]2O[C@H]2C[C@](C)(N)[C@H](O)[C@H](C)O2)Oc2ccc(cc2Cl)[C@H]1O` [Van, vancomycin, reference compound], the MIC with S. aureus ATCC 29213 (ATCC29213, read-out: MIC Van Alone) is 0.5 µg/mL; in data set [1] (ATCC12228, read-out: MIC Van Alone) it was 0.5 µg/mL.
“[(η ^6 -p-cymene)Ru(1-[amino(thioxo)methyl]-5-hydroxy-3-methyl-1H-pyrazole)[PF6] [Compound 3d]”: the MBC/MFC is greater than 1000 µg/mL in data set [2]; 500 µg/mL in data set [3]; greater than 1000 µg/mL in data set [4]; 1000 µg/mL in data set [5]; 500 µg/mL in [6]; 250 µg/mL in [7]. The MIC is given as greater than 1000 µg/mL in data set [2]; 500 µg/mL in [3]; greater than 1000 µg/mL in [4]; 1000 µg/mL in data set [5]; 125 µg/mL in [6]; 125 µg/mL in data set [7]. Further, the “FIC (Oxa)” value with S. aureus ATCC 29213 (S. aureus ATCC 29213) is 1; in data set [1] (S. epidermidis ATCC 12228) it was 0.25. The “FIC (Van)” value in the data set with S. aureus ATCC 29213 (S. aureus ATCC 29213) turned out to be 2; in data set [1] (S. epidermidis ATCC 12228), 0.06. For the same molecule, the “MIC Oxa in Combination” value turned out to be 0.250 µg/mL with S. aureus ATCC 29213 (S. aureus ATCC 29213) and 0.06 µg/mL in [1] (S. epidermidis ATCC 12228). The entries for the “MIC Van in Combination” value (with S. aureus ATCC 29213 (S. aureus ATCC 29213); in data set [1] (S. epidermidis ATCC 12228)) were 1 µg/mL and 0.03 µg/mL, respectively. Also, the “Change in bacterial viability (Hoechst 33258 / PI fluorescence)” value in data set [8] and in data set [9] was “no significant changes in the viability” in each case. Moreover, the half-maximal inhibitory concentration (IC50) (commonly the concentration that gives 50% inhibition) in [10] (HFF-1, MTT, 24 h, tested 3.9–500 μM) came out at 892 µM. Further, the “HFF-1 viability (lowest)” value in [10] (range 3.9–500 μM) is recorded as no less than 75%.

For the origin of these results see article PMC8781304, “Arene-Ruthenium(II) Complexes with Carbothiamidopyrazoles as a Potential Alternative for Antibiotic Resistance in Human” (Molecules, 2022).
